Results from PubChem BioAssay AID1584 (NINDS Approved Drug Screening Program, 2009).
Results filed as inconclusive are left out.

Target: Huntingtin (Homo sapiens) (UniProt P42858)
Experiment: inhibitors of mutant Htt aggregation in vitro, dose response, QA1 (AID 1584)
Settings: in vitro mutant huntingtin aggregation assay

Sequence of Huntingtin (Homo sapiens) (P42858 whole entry, looked up): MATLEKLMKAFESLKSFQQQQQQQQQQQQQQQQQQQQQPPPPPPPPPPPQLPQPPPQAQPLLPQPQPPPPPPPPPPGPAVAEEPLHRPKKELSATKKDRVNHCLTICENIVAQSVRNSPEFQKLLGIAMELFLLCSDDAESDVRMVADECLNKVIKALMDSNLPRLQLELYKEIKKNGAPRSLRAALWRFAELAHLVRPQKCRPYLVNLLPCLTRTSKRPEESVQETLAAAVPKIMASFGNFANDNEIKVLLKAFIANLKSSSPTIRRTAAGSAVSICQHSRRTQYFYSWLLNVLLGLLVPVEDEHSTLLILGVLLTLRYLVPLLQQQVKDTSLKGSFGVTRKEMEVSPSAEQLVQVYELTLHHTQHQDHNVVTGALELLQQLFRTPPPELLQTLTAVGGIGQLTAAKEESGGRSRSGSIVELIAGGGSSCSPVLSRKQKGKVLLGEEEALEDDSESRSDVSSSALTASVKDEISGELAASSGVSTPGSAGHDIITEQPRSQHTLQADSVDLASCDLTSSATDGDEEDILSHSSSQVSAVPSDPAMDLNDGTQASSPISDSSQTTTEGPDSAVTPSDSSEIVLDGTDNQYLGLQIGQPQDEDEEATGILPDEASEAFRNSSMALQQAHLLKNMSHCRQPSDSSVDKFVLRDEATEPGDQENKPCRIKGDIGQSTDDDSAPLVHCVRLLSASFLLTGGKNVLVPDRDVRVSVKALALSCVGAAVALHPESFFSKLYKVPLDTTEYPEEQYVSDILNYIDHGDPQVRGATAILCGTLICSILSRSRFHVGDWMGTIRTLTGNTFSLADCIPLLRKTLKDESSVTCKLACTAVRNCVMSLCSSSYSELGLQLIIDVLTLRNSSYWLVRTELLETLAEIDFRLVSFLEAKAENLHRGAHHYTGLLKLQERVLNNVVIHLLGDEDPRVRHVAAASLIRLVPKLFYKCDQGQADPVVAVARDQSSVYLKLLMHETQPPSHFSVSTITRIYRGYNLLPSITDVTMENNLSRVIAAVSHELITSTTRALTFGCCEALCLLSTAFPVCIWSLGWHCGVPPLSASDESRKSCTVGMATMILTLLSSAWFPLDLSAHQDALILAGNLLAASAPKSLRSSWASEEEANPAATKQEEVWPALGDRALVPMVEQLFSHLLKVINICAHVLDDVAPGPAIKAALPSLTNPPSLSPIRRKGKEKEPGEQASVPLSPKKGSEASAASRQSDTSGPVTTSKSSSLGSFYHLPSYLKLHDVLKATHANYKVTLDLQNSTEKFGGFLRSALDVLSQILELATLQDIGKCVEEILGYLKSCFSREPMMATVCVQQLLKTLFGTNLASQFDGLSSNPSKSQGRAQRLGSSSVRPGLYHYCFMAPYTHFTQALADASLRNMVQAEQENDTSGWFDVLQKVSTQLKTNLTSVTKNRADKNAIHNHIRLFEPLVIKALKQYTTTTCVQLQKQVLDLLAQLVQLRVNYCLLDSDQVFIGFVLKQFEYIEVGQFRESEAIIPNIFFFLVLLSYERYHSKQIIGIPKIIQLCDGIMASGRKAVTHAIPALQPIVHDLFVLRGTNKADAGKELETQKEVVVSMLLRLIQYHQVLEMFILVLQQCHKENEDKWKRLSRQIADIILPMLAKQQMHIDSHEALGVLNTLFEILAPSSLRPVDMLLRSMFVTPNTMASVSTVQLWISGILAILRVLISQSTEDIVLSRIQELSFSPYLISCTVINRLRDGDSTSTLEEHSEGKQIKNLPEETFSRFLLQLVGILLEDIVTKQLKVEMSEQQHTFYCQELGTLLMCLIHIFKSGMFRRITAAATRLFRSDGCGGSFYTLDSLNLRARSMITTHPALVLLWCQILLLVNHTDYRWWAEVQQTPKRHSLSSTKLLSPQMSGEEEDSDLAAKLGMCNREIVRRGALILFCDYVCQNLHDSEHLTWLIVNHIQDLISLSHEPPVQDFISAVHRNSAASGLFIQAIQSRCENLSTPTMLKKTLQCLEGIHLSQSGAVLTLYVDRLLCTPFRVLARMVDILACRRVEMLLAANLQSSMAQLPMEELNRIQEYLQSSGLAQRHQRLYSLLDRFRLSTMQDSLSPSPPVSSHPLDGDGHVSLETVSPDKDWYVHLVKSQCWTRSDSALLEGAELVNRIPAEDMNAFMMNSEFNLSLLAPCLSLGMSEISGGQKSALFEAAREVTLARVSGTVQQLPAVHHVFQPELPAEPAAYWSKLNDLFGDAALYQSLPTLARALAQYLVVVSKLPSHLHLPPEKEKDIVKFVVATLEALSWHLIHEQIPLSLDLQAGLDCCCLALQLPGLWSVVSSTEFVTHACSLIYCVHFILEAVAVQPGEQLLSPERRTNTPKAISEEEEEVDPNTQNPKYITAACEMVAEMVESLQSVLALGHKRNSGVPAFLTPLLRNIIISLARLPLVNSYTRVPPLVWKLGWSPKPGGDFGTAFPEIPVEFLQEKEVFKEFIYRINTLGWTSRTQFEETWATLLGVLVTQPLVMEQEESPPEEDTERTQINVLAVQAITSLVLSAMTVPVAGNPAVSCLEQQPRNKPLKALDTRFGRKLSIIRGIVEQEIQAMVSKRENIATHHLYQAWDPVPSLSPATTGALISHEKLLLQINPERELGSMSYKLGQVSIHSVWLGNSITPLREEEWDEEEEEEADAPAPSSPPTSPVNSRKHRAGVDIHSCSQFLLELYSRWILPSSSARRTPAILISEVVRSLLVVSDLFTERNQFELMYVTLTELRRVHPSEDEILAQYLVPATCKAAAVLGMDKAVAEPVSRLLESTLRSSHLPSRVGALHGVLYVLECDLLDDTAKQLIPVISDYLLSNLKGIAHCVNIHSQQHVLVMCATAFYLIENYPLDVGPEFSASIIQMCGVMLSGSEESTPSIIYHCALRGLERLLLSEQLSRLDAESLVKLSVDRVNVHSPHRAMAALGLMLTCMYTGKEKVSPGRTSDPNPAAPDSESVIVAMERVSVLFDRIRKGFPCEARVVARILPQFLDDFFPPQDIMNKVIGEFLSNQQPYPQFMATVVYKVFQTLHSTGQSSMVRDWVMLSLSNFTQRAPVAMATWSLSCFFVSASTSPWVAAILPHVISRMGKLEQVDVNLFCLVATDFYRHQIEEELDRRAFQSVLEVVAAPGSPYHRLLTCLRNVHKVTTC

SMILES	EC50 [µM]
O=c1c(O)c(-c2ccc(O)cc2O)oc2cc(O)cc(O)c12	17
C[n+]1cc2c3c(ccc2c2ccc4cc5c(cc4c21)OCO5)OCO3	5.7
C[C@@]1(C(=O)O)CC[C@]2(C)CC[C@]3(C)C4=CC=C5C=C(O)C(=O)C=C5[C@]4(C)CC[C@@]3(C)[C@@H]2C1	3.55
O=C1c2c(O)cccc2Cc2cccc(O)c21	10.5
CC(C)=CCCC1(C)C=Cc2c(O)c3c(c(CC=C(C)C)c2O1)OC12C(=CC4CC1C(C)(C)OC2(C/C=C(/C)C(=O)O)C4=O)C3=O (stereo not given)	0.87
O=C1C=CC(=O)c2c(O)cccc21	2.67
C=C1c2c(Cl)ccc(O)c2C(O)=C2C(=O)[C@]3(O)C(O)=C(C(N)=O)C(=O)[C@@H](N(C)C)[C@@H]3[C@@H](O)[C@H]12	14.8
Cc1cc(/C=C/c2ccc3cc(N(C)C)ccc3[n+]2C)c(C)n1-c1ccccc1	21.7
Cc1cc2c(C(C)C)c(O)c(O)c(C=O)c2c(O)c1-c1c(C)cc2c(C(C)C)c(O)c(O)c(C=O)c2c1O	0.65
C=Cc1c(C)c2cc3[nH]c(cc4nc(cc5nc(cc1[nH]2)C(C)=C5CCC(=O)O)C(CCC(=O)O)=C4C)c(C)c3C=C	19.7
